Entries after “also recorded” stand apart in the source; their conditions may differ.

Data on three compounds can be found in patent US10501518B2 (priority 2013, dated 2019).

One series has as its target T1, rPTHR-1 (Rattus norvegicus, UniProt P25961).
T1 construct: expressed in transfected cells
T1 sequence (P25961 27-591): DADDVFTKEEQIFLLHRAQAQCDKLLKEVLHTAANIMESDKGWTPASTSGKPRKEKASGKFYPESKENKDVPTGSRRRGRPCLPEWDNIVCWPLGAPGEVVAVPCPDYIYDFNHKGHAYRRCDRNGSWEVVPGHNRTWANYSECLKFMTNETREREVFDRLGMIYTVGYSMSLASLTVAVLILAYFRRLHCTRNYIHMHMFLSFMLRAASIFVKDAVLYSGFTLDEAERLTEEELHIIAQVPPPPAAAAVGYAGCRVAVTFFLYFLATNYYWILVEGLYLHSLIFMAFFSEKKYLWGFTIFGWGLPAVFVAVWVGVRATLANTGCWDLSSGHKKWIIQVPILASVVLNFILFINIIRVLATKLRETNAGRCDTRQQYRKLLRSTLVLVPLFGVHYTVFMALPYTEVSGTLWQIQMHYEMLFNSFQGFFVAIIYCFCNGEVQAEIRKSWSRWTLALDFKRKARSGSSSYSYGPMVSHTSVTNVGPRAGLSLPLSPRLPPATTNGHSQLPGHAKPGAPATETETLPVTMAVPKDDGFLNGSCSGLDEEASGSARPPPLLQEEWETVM
In words: Washout assay of cAMP response in GR-35 cells. The settings on record: for AUC-on / AUC-washout / AUC Ratio: Table 11; for AUC-on: luminescence AUC in the 14 minutes before washout, PTH(1-34), D6, M-PTH(1-34) 0.3 nM, B5 3 nM; for AUC-washout: luminescence AUC in the 120 minutes following washout; for AUC Ratio: ratio of AUC-washout to AUC-on; for cAMP response following washout, in words: rPTHR-1-expressing cells, relative to PTH(1-34). It counts as cell-based. The method, then:
FIGS. 11A and 11B present the results of rPTHR-1 washout experiments. Assays of cAMP accumulation were performed using HEK-293-derived cell lines stably transfected to express the luciferase-based cAMP GloSensor™-brand protein along with WT-rPTHR-1 (GR-35 cells). Data are means (±SEM) of n=3 (M-PTH) or n=5 experiments, each performed in quadruplicate. […] Ligand was applied and luminescence was recorded for 14 minutes thereafter. FIG. 11B depicts data for the accumulation of cAMP following ligand wash-out in cells expressing the rPTHR-1. The cells from FIG. 11A were removed from the plate reader at the end of the 14-min “ligand-on” phase, rinsed twice to remove unbound ligand, treated with fresh medium containing luciferin, and luminescence was again recorded for an additional 120 min of “wash-out.” Luminescence was recorded using a PerkinElmer Envision plate reader; cells were preloaded with luciferin for 30 min before ligand addition.
HEK293 cell monolayers expressing rat PTHR-1 (GR35 cells) were treated with ligand in for 14 minutes. This buffer was then discarded, and the cell monolayer was rinsed (2×). Buffer containing luciferin was introduced for 120 minutes. Luminescence response was recorded before and after washout, with luminescence readings recorded every 2 minutes. The area under the curve (AUC) for luminescence response curve was determined using GraphPad Prism. See […] for a graphs depicting the average of n=3 (M-PTH) or n=5 washout experiments. See Table 11 for a description of composite data from n=3 or 5 washout experiments.
Data were processed by using the Microsoft Excel and GraphPad Prism 4.0 software packages. Data from binding and cAMP dose-response assays were analyzed using a sigmoidal dose-response model with variable slope. Washout responses were assessed by quantifying the area under the luminescence response curve (AUC) following washout. Post-washout AUC was normalized by dividing the post-washout AUC by the pre-washout AUC. Paired data sets were statistically compared by using Student's t test (two-tailed) assuming unequal variances for the two sets.

Series [1] in a line: In vivo pharmacokinetics: peptide content of mouse plasma by cAMP GloSensor assay. The settings on record: mice, subcutaneous injection, 20 nmol/kg. On the procedure:
(§1) Compound concentrations were determined by submitting plasma to a cAMP GloSensor assay, quantification of luminescence readout, and conversion to peptide concentration via standard curve. […] See also FIGS. 12A, 12B and 12C.
FIG. 12 B is a magnification of FIG. 12A to highlight the data from early time points. FIG. 12 C is a dose-response curve used to convert the raw luminescence time course found in FIG. 12A to the peptide concentration time course found in FIG. 3B. This curve was generated from a single assay run immediately before assessing the raw luminescence time course.
Blood was withdrawn just prior to injection (t=0) or at times thereafter. Tail vein blood was collected and treated with protease inhibitors (aprotinin, leupeptin, EDTA), centrifuged to remove blood cells, mixed with cAMP response assay buffer, and administered to GP2.3 cells. The raw luminescence readouts recorded in this assay were converted to blood peptide concentrations through use of a standard curve relating luminescence response to known peptide concentrations under identical assay conditions.

A short description of series [2]: Calcemic response in mice after subcutaneous injection. It counts as in vivo. The settings on record: 20 nmol/kg. On the procedure:
as §1
Mice (C57BL/6, male, age 9-12 weeks) were treated in accordance with the ethical guidelines adopted by Massachusetts General Hospital. […] Blood was withdrawn just prior to injection (t=0) or at times thereafter. Tail vein blood was collected and immediately used for analysis. Blood Ca^2+ concentration was measured with a Chiron Diagnostics model 634 Ca^2+/pH analyzer.

Another series concerns the target T2, WT rat PTHR-1 (Rattus norvegicus, UniProt P25961).
T2 construct: expressed in transfected cells
T2 sequence (P25961 27-591): T1 sequence (P25961 27-591)
Put plainly: cAMP GloSensor dose-response in GR-35 cells expressing rat PTHR-1. Type of series: cell-based. The following applies: for cAMP (rPTHR-1) Max / EC50: Table 2; for cAMP (rPTHR-1) Max: luminescence counts per second relative to PTH(1-34); for cAMP (rPTHR-1) Max / Max: 12-16 minutes after ligand addition; for Max / Fold nM PTH(1-34): Table 7; for Max: GR-35 cells, mean ± SEM; for EC50: read-out: cAMP (rPTHR-1) EC50; for Fold nM PTH(1-34): EC50 relative to PTH(1-34).

For `CC[C@H](C)[C@H](NC(=O)[C@H](CCC(=O)O)NC(=O)[C@H](CO)NC(=O)[C@@H](NC(=O)[C@@H](N)CO)C(C)C)C(=O)N[C@@H](CCC(N)=O)C(=O)N[C@@H](CC(C)C)C(=O)N[C@@H](CCSC)C(=O)N[C@@H](Cc1cnc[nH]1)C(=O)N[C@@H](CC(N)=O)C(=O)N[C@@H](CC(C)C)C(=O)NCC(=O)N[C@@H](CCCCN)C(=O)N[C@@H](Cc1cnc[nH]1)C(=O)N[C@@H](CC(C)C)C(=O)N[C@@H](CC(N)=O)C(=O)N[C@@H](CO)C(=O)N[C@@H](CCSC)C(=O)N[C@@H](CCC(=O)O)C(=O)N[C@@H](CCCN=C(N)N)C(=O)N[C@H](C(=O)N[C@@H](CCC(=O)O)C(=O)N[C@@H](Cc1c[nH]c2ccccc12)C(=O)N[C@@H](CC(C)C)C(=O)N[C@@H](CCCN=C(N)N)C(=O)N[C@@H](CCCCN)C(=O)N[C@@H](CCCCN)C(=O)N[C@@H](CC(C)C)C(=O)N[C@@H](CCC(N)=O)C(=O)N[C@@H](CC(=O)O)C(=O)N[C@H](C(=O)N[C@@H](Cc1cnc[nH]1)C(=O)N[C@@H](CC(N)=O)C(=O)N[C@@H](Cc1ccccc1)C(=O)O)C(C)C)C(C)C` [PTH(1-34), reference compound], at rPTHR-1, the AUC-on was 92,000 ± 34,000 and the AUC-washout is 100,000 ± 25,000. In addition, the “level / persistence in the mouse bloodstream” value (from here on “level / persistence”) in series [1] is “consistently lower than the level of B5”. For the same compound, the “calcemic response (blood Ca^2+ concentration)” value (from here on “calcemic response”) in series [2] is “transient rise in the blood concentration of Ca^2+, which peaks after about one hour”. At WT rat PTHR-1, the “cAMP (rPTHR-1) Max” value was 1.00 and the Max is on record as 65 ± 31 luminescence counts per second × 10−3.
On to `CC[C@H](C)[C@H](NC(=O)[C@H](CCC(=O)O)NC(=O)[C@H](CO)NC(=O)[C@@H](NC(=O)[C@@H](N)CO)C(C)C)C(=O)N[C@@H](CCC(N)=O)C(=O)N[C@@H](CC(C)C)C(=O)N[C@@H](CCSC)C(=O)N[C@@H](Cc1c[nH]cn1)C(=O)N[C@@H](CC(N)=O)C(=O)N[C@@H](CC(C)C)C(=O)NCC(=O)N[C@@H](CCCCN)C(=O)N[C@@H](Cc1c[nH]cn1)C(=O)N[C@@H](CC(C)C)C(=O)N[C@@H](CC(N)=O)CC(=O)N[C@@H](CO)C(=O)N[C@@H](CCSC)C(=O)N[C@@H](CCC(=O)O)C(=O)N[C@@H](CCCNC(=N)N)CC(=O)N[C@H](C(=O)N[C@@H](CCC(=O)O)C(=O)N[C@@H](Cc1c[nH]c2ccccc12)C(=O)N[C@H](CC(=O)N[C@@H](CCCNC(=N)N)C(=O)N[C@@H](CCCCN)C(=O)N[C@@H](CCCCN)C(=O)N[C@H](CC(=O)N[C@@H](CCC(N)=O)C(=O)N[C@@H](CC(=O)O)C(=O)N[C@H](C(=O)N[C@@H](CCC(N)=O)CC(=O)N[C@@H](CC(N)=O)C(=O)N[C@@H](Cc1ccccc1)C(N)=O)C(C)C)CC(C)C)CC(C)C)C(C)C` [B5], for which, on rPTHR-1, the AUC-on was 130,000 ± 50,000; the AUC-washout was 84,000 ± 23,000; the “AUC Ratio” value is recorded as 0.80 ± 0.16; the “cAMP response following washout, in words” value is “short-lived cAMP response”. Besides, in series [1], the “level / persistence” value is on record as “prolonged bioavailability”. Besides, the “calcemic response” value in series [2] was “more transient rise in Ca^2+ concentration relative to PTH(1-34)”. In addition, at WT rat PTHR-1, the “cAMP (rPTHR-1) Max” value was 0.78, the EC50 is 1.45 nM, the “Fold nM PTH(1-34)” value is listed as 3.49 and the Max is given as 51 ± 21 luminescence counts per second × 10−3.
In the case of `CC[C@H](C)[C@H](NC(=O)[C@H](CCC(=O)O)NC(=O)[C@H](CO)NC(=O)[C@@H](NC(=O)[C@@H](N)CO)C(C)C)C(=O)N[C@@H](CCC(N)=O)C(=O)N[C@@H](CC(C)C)C(=O)N[C@@H](CCSC)C(=O)N[C@@H](Cc1cnc[nH]1)C(=O)N[C@@H](CC(N)=O)C(=O)N[C@@H](CC(C)C)C(=O)NCC(=O)N[C@@H](CCCCN)C(=O)N[C@H](CC(=O)N[C@@H](CC(C)C)C(=O)N[C@@H](CC(N)=O)C(=O)N[C@@H](CO)C(=O)N[C@@H](CCSC)CC(=O)N[C@@H](CCC(=O)O)C(=O)N[C@@H](CCCNC(=N)N)C(=O)N[C@H](C(=O)N[C@@H](CCC(=O)O)CC(=O)N[C@@H](Cc1c[nH]c2ccccc12)C(=O)N[C@@H](CC(C)C)C(=O)N[C@@H](CCCNC(=N)N)C(=O)N[C@@H](CCCCN)CC(=O)N[C@@H](CCCCN)C(=O)N[C@@H](CC(C)C)C(=O)N[C@@H](CCC(N)=O)C(=O)N[C@@H](CC(=O)O)CC(=O)N[C@H](C(=O)N[C@@H](Cc1cnc[nH]1)C(=O)N[C@@H](CC(N)=O)C(=O)N[C@H](CC(N)=O)Cc1ccccc1)C(C)C)C(C)C)Cc1c[nH]c2ccccc12` [D6], at rPTHR-1, the AUC-on is reported as 100,000 ± 36,000; the AUC-washout was 130,000 ± 37,000; the “AUC Ratio” value amounted to 1.50 ± 0.35; the “cAMP response following washout, in words” value was “comparable to that of PTH(1-34)”. In addition, the “level / persistence” value in series [1] is “persists even longer in the bloodstream than does B5; also recorded: persists much longer in the mouse bloodstream than does PTH(1-34)”. In addition, in series [2], the “calcemic response” value is on record as “sustained, with no diminution six hours after injection”. Besides, on WT rat PTHR-1, the “cAMP (rPTHR-1) Max” value is recorded as 0.76, the EC50 is 0.33 nM, the “Fold nM PTH(1-34)” value was determined as 0.79 and the Max is listed as 50 ± 15 luminescence counts per second × 10−3.

The term EC50 denotes the concentration at which the effect is half-maximal.
